Key:
Assay type in all cases: cell-based, mouse
[1] = tested on: Alp1; experiment: qRT-PCR of osteogenic marker Alp1 in osteoblasts; conditions: 5 days differentiation, siRNA 30 nM, plasmid 1 μg/mL, bongkrekic acid 40 μM, normalized to 18S rRNA, versus respective control
Method: (§1) The osteoblasts extracted in Example 1 were transfected with 30 nM of siOpa1, siFis1, and 1 μg/mL of pCMV-Fis1 plasmids, respectively, in substantially the same manner as in Example 2-1, and separate osteoblasts were treated with 40 μM bongkrekic acid, and additionally, the osteoblasts extracted in Example 1 were transfected with 30 nM siBax, which is an siRNA of Bax (Bcl-2-associated X), and 1 μg/mL pCMV-Bax plasmid (Korea Human Gene Bank, ID: mMU001857), respectively, and differentiation of the osteoblasts was induced for 5 days in a medium consisting of alpha MEM (Minimum Essential Media, Hyclone) supplemented with 10% fetal bovine serum (Gibco) and 100 U/mL of penicillin-streptomycin (Gibco) of Example 2-1. As a control for the siRNA, osteoblasts were prepared by transfecting the control siRNA of Example 2-1 in substantially the same manner as the siRNA; as a control for the plasmid, osteoblasts were prepared by transfecting the pCMV-SPORT6 empty vector plasmid into which no gene was inserted in substantially the same manner as the pCMV-Fis1 plasmid; and as a control for the bongkrekic acid, osteoblasts treated with 0.01M Tris solution were prepared.
(§2) qRT-PCR was performed to evaluate the gene expression level of the osteoblasts that underwent ALP staining in Example 3-2. Total RNA was extracted from the cells using QIAzol Lysis Reagent (Qiagen, Germany) and RNeasy Mini Kit (Qiagen, Germany), and cDNA was prepared using PrimeScript RT Reagent Kit (Takara, Japan) according to the manufacturer's instructions. Quantitative RT-PCR was performed using TB Green Premix Ex Taq II (Takara, Japan) and StepOnePlus Real-Time PCR system (Applied Biosystems, USA). Relative gene expression was determined using standard 2(−ΔΔCt) calculations with normalization to 18S rRNA, and information on the primers used is specifically shown in Table 3 below.

[2] = tested on: osteoblasts; experiment: Alkaline phosphatase (ALP) staining of differentiation-induced osteoblasts; conditions: 5 days differentiation, siRNA 30 nM, plasmid 1 μg/mL, bongkrekic acid 40 μM, versus respective control
Method: as §1
To confirm the osteogenic activity of the osteoblasts differentiation-induced in Example 3-1, staining of alkaline phosphatase (ALP), an osteogenic marker, was performed and observed. Specifically, 1 mg of Naphthol AS-MX phosphate (Sigma) was dissolved in 100 μL of N,N-dimethylformamide (Sigma), then 2 mL of 0.1% Fast blue BB salt (Sigma) solution was added and ALP staining was performed at 37° C. for 30 minutes. Osteogenic activity was confirmed by the intensity of staining, and it was evaluated that the darker the staining, the higher the expression of ALP.

[3] = tested on: osteoblast mitochondria; experiment: Osteoblast fluorescence imaging of mitochondrial morphology (fission, donut-shaped mitochondria); conditions: osteoblasts, 5 days differentiation, siRNA 30 nM, plasmid 1 μg/mL, bongkrekic acid 40 μM; for formation of donut-shaped mitochondria (confocal images, FIGS. 1A to 1C) / mitochondrial fission (confocal images, FIGS. 1A to 1C): versus control; for mitochondrial fission (quantitative analysis, Zeiss Zen 3.1, FIGS. 1D and 1E) / number of donut-shaped mitochondria (quantitative analysis, FIGS. 1D and 1E): versus respective control
Method: To confirm changes in the morphology of osteoblast mitochondria, transgenic mice were prepared to express green fluorescent protein (GFP) specifically in the mitochondrial matrix. Specifically, lgs1^CKI-mitoGFP/CKI-mitoGFP knock-in C57BL/6 female mice were provided by Jeremy Nathans (Johns Hopkins University School of Medicine, MD), Col1a1-Cre male mice were provided by the Korea Research Institute of Bioscience and Biotechnology, and Col1a1-Cre was prepared to be expressed in these mice using the 2.3 kb murine Col1a1 promoter. By mating the prepared C57BL/6 female transgenic mouse with the Col1a1-Cre male mouse, newborn transgenic mice (Col1a1-Cre; Igs1^CKI-mito-GFP/+) that conditionally express GFP only in the mitochondria of osteoblasts were prepared. All animal studies were approved by the Seoul National University Institutional Animal Care and Use Committees.
The skull cells of the prepared transgenic mice that express GFP conditionally only in the mitochondria were treated with 0.25% trypsin (Gibco) for 10 minutes, incubated in 2 mg/mL type 2 collagenase (Worthington) for 30 minutes, and in fresh type 2 collagenase for another 60 minutes. The cells separated from the bone tissue were collected by centrifugation at 1300 rpm for 3 minutes, and the cells were placed on serum and centrifuged to remove debris. To separate living osteoblasts that express GFP in mitochondria, they were stained with 7AAD (Bio-Legend) for 10 minutes (only dead cells were stained) and a flow cytometry technique (Fluorescence-activated cell sorting, FACS) was used.
The osteoblasts extracted in Example 1 were induced to be differentiated in a medium composed of alpha MEM (Minimum Essential Media, Hyclone) supplemented with 10% fetal bovine serum (Gibco) and 100 U/mL penicillin-streptomycin (Gibco) for 5 days. Specifically, the differentiation medium is composed of alpha MEM with 50 μg/mL ascorbic acid (Amreasco), 5 mM beta-glycerophosphate (Sigma), 10% fetal bovine serum (Gibco), and 100 U/mL penicillin-streptomycin (Gibco). Osteoblast differentiation was induced for 5 days.
Short interfering RNA (siRNA) that inhibits the expression of the Opa1 (dynamin-like 120 kDa protein) gene, which induces mitochondrial fusion, and the Fis1 (Mitochondrial fission 1 protein) gene, which induces mitochondrial fission (siOpa1, siFis1, respectively) was transfected into 300,000 osteoblasts per 1 mL at 30 nM each at the same time as differentiation induction using Lipofectamine RNAiMAX Reagent (Invitrogen), and to increase mitochondrial fission, the pCMV-Fis1 plasmid (Korea Human Gene Bank) was transfected into 300,000 osteoblasts per mL at 1 μg/mL at the same time as differentiation induction using TransIT®-LT1 Transfection Reagent (Mirus) to overexpress the Fis1 gene. In addition, the osteoblasts prepared above were treated simultaneously with differentiation with Tris solution-based bongkrekic acid (Sigma, B6179, USA) at a concentration of 40 μM. As a control for the siRNA, osteoblasts were prepared by transfecting the control siRNA in substantially the same manner as the siRNA; as a control for the plasmid, osteoblasts were prepared by transfecting the pCMV-SPORT6 empty vector plasmid into which no gene was inserted in substantially the same manner as the pCMV-Fis1 plasmid; and as a control for the bongkrekic acid, osteoblasts treated with 0.01M Tris solution were prepared. The siRNAs were purchased from Bioneer, Korea and transfected using Lipofectamine RNAimax (Invitrogen, USA) according to the manufacturer's instructions, and specific information on the siRNAs is shown in Table 1 below.
The pCMV-Fis1 plasmid containing full-length mouse Fis1 cDNA (ID: mMU002771) was purchased from the Korea Human Gene Bank, and was transfected into osteoblasts using TransIT-LT1 transfection reagent (Mirus Bio, USA) according to the manufacturer's instructions. […]

[4] = tested on: Ibsp; experiment: qRT-PCR of osteogenic marker Ibsp in osteoblasts; conditions: 5 days differentiation, siRNA 30 nM, plasmid 1 μg/mL, bongkrekic acid 40 μM, normalized to 18S rRNA, versus respective control
Method: as §1, §2

Compound	expression of Alp1 (qRT-PCR) [1]	degree of ALP staining (osteogenic activity) [2]	formation of donut-shaped mitochondria (confocal images, FIGS. 1A to 1C) [3]	mitochondrial fission (confocal images, FIGS. 1A to 1C) [3]	mitochondrial fission (quantitative analysis, Zeiss Zen 3.1, FIGS. 1D and 1E) [3]	number of donut-shaped mitochondria (quantitative analysis, FIGS. 1D and 1E) [3]	expression of Ibsp (qRT-PCR) [4]
siOpa1: siRNA inhibiting expression of the Opa1 gene; Bioneer ID 74143-1, SEQ ID NO 1 and 2 (chain 1 GUGUUCACAACGAAACCAAUU; chain 2 UUGGUUUCGUUGUGAACACUU; chemistry not given here)	significantly increased	stronger compared to the respective controls	increased compared to the control	increased compared to the control	significantly increased	significantly increased	significantly increased
CO[C@H](C/C=C\C=C\CC/C=C/C[C@H](C)/C=C/C(=C\C(=O)O)CC(=O)O)/C(C)=C\C=C(/C)C(=O)O [bongkrekic acid]	significantly increased	stronger compared to the respective controls	increased compared to the control	increased compared to the control	significantly increased	significantly increased	significantly increased
siFis1: siRNA inhibiting expression of the Fis1 gene; Bioneer ID 66437-1, SEQ ID NO 3 and 4 (chain 1 CUGAUUGAUAAGGCCAUGAUU; chain 2 UCAUGGCCUUAUCAAUCAGUU; chemistry not given here)	significantly decreased	weaker compared to the respective controls	significantly reduced compared to the control	significantly reduced compared to the control	significantly reduced	significantly reduced	significantly decreased
siBax: siRNA of Bax (Bcl-2-associated X); Bioneer ID 12028-1, SEQ ID NO 5 and 6 (chain 1 GCUGCAGAGGAUGAUUGCUTT; chain 2 AGCAAUCAUCCUCUGCAGCTT; chemistry not given here)		weaker compared to the respective controls					

— US20240207211A1, “COMPOSITION FOR PROMOTING BONE FORMATION OR TREATING BONE DISEASE BY ACTING ON OSTEOBLAST MITOCHONDRIA” (SEOUL NATIONAL UNIVERSITY R&DB FOUNDATION, priority 2021, published 2024)
